Laboratory results: US20230233569A1 (Revolution Medicines, Inc., priority 2020, published 2023)

Legend:
[1] = target: KRAS G12C (Homo sapiens, UniProt P01116+P62937, G12C); assay: Ras-Raf disruption / FRET / MOA assay (BRAF RBD); assay type: biochemical; conditions: KRAS G12C FRET data IC50, Ras-Raf disruption, with Cyclophilin A
How it was run: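 TR-FRET read-out after 1.5 h with anti-His Eu-W1024 (10 nM) and anti-GST APC (50 nM), following 3 h at 25 °C of compound (top 30 μM, 3-fold, 10 points) with 25 μM Cyclophilin A, 12.5 nM GMPPNP-loaded K-Ras G12C and 50 nM BRAF RBD; IC50 reported.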

[2] = target: KRAS G12D (Homo sapiens, UniProt P01116+P62937, G12D); assay: Ras-Raf disruption / FRET / MOA assay (BRAF RBD); assay type: biochemical; conditions: KRAS G12D FRET data IC50, Ras-Raf disruption, with Cyclophilin A
How it was run: (§1)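 Compound-induced Ras–Cyclophilin A ternary complex disrupting BRAF RBD binding, read as IC50 from reduced TR-FRET ratio relative to DMSO. Final: Ras-GMPPNP 12.5 nM, BRAF RBD 50 nM, Cyclophilin A 25 μM, top compound 30 μM (3-fold, 10 points); 3 h at 25 °C, then 1.5 h with detection antibodies.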

[3] = target: KRAS WT (Homo sapiens, UniProt P01116+P62937); assay: Ras-Raf disruption / FRET / MOA assay (BRAF RBD); assay type: biochemical; conditions: KRAS WT FRET data IC50, Ras-Raf disruption, with Cyclophilin A
How it was run: as §1

[4] = target: KRAS G12V (Homo sapiens, UniProt P01116+P62937, G12V); assay: Ras-Raf disruption / FRET / MOA assay (BRAF RBD); assay type: biochemical; conditions: KRAS G12V FRET data IC50, Ras-Raf disruption, with Cyclophilin A
How it was run: as §1

[5] = target: NRAS G12C (Homo sapiens, UniProt P01111+P62937, G12C); assay: Ras-Raf disruption / FRET / MOA assay (BRAF RBD); assay type: biochemical; conditions: NRAS G12C FRET data IC50, NRAS G12C
How it was run: as §1

[6] = target: KRAS G13D (Homo sapiens, UniProt P01116+P62937, G13D); assay: Ras-Raf disruption / FRET / MOA assay (BRAF RBD); assay type: biochemical; conditions: KRAS G13D FRET data IC50, Ras-Raf disruption, with Cyclophilin A
How it was run: as §1

[7] = target: KRAS G13C (Homo sapiens, UniProt P01116+P62937, G13C); assay: Ras-Raf disruption / FRET / MOA assay (BRAF RBD); assay type: biochemical; conditions: KRAS G13C FRET data IC50, Ras-Raf disruption, with Cyclophilin A
How it was run: as §1

[8] = target: KRAS G12S (Homo sapiens, UniProt P01116+P62937, G12S); assay: Ras-Raf disruption / FRET / MOA assay (BRAF RBD); assay type: biochemical; conditions: KRAS G12S FRET data IC50, Ras-Raf disruption, with Cyclophilin A
How it was run: as §1

[9] = test system: AsPC-1 (K-Ras G12D); assay: Potency assay: pERK; assay type: cell-based; conditions: Homo sapiens, ASPC1, read-out: pERK EC50
[10] = test system: NCI-H358 (K-Ras G12C); assay: CellTiter-Glo cell viability assay; assay type: cell-based; conditions: Homo sapiens, NCI-H358, 120 h, read-out: H358 Cell Viability assay data IC50, K-Ras G12C, 5-day treatment
How it was run: (§2)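 Luminescent viability readout on day 5, plates first brought to room temperature for ~30 min; compounds added straight to plated RAS-mutant cells. Values expressed as percent of mean DMSO signal, curves fitted with a four-parameter logistic model.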

[11] = test system: AsPC-1 (K-Ras G12D); assay: CellTiter-Glo cell viability assay; assay type: cell-based; conditions: Homo sapiens, ASPC1, 120 h, read-out: AsPC-1 Cell Viability assay data IC50, K-Ras G12D, 5-day treatment
How it was run: as §2

KRAS G12V, sequence (P01116 1-169 isoform P01116-2 G12V limits assumed): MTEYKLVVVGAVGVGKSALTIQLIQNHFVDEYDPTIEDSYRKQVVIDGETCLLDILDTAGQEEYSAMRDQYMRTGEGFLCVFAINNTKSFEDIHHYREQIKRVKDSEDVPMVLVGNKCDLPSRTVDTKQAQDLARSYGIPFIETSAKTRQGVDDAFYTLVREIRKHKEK
KRAS G12V, sequence (P62937 whole entry): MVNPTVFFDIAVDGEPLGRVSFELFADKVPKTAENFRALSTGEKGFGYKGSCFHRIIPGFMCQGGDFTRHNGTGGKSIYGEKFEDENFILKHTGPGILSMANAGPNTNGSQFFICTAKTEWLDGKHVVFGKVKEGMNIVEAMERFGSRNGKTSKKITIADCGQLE
KRAS G13D, sequence (P01116 1-169 isoform P01116-2 G13D limits assumed): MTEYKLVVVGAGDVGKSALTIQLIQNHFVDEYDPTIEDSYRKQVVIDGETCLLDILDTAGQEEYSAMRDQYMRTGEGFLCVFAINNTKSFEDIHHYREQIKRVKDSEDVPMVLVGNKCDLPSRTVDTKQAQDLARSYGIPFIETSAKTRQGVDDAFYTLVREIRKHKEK
KRAS G13D, sequence (P62937 whole entry): as the sequence (P62937 whole entry) above
KRAS WT, sequence (P01116 1-169 isoform P01116-2 limits assumed): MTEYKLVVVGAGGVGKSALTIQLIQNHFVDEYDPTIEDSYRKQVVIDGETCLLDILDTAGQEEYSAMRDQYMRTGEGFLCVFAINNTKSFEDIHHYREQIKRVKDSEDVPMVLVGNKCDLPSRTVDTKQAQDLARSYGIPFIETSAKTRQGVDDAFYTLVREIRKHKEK
KRAS WT, sequence (P62937 whole entry): as the sequence (P62937 whole entry) above
KRAS G12C, sequence (P01116 1-169 isoform P01116-2 G12C limits assumed): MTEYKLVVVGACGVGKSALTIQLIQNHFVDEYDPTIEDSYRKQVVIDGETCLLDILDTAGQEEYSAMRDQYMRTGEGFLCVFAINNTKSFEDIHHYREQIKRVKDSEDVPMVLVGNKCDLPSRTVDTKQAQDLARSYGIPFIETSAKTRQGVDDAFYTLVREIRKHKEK
KRAS G12C, sequence (P62937 whole entry): as the sequence (P62937 whole entry) above
NRAS G12C, sequence (P01111 whole entry G12C): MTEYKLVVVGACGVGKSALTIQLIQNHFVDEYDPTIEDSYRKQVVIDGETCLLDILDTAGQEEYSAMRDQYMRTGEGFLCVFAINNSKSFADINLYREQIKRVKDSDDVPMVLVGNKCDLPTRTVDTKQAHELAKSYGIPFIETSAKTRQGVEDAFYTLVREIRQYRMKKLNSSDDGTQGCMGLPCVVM
NRAS G12C, sequence (P62937 whole entry): as the sequence (P62937 whole entry) above
KRAS G12D, sequence (P01116 1-169 isoform P01116-2 G12D limits assumed): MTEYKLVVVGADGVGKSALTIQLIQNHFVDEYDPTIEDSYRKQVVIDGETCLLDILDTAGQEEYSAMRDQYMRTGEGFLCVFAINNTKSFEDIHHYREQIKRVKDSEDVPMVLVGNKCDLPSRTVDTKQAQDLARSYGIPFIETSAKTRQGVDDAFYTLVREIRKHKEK
KRAS G12D, sequence (P62937 whole entry): as the sequence (P62937 whole entry) above
KRAS G13C, sequence (P01116 1-169 isoform P01116-2 G13C limits assumed): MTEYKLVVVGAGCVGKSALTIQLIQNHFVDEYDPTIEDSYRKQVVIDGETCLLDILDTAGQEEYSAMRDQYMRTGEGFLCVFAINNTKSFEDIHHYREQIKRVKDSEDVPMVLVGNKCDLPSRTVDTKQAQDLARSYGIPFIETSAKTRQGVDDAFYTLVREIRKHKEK
KRAS G13C, sequence (P62937 whole entry): as the sequence (P62937 whole entry) above
KRAS G12S, sequence (P01116 1-169 isoform P01116-2 G12S limits assumed): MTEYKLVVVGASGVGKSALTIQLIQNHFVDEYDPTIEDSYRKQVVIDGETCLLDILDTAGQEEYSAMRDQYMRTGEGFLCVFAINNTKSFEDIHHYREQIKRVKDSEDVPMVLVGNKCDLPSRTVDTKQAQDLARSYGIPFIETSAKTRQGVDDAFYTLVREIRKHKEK
KRAS G12S, sequence (P62937 whole entry): as the sequence (P62937 whole entry) above

CCn1c(-c2cccnc2[C@H](C)OC)c2c3cc(ccc31)-c1cc(O)cc(c1)C[C@H](NC(=O)[C@H](C(C)C)N(C)C(=O)CN(C)C(=O)[C@H]1CN1)C(=O)N1CCC[C@H](N1)C(=O)OCC(C)(C)C2 (single isomer, unassigned) [Example 42A]
IC50 [1]: < 10 nM
IC50 [2]: 10 to 100 nM
IC50 [3]: 10 to 100 nM
IC50 [4]: 10 to 100 nM
IC50 [5]: < 10 nM
IC50 [6]: 10 to 100 nM
IC50 [7]: < 10 nM
IC50 [8]: 10 to 100 nM
EC50 [9]: < 5000 nM
IC50 [10]: < 10 nM

CCn1c(-c2cnccc2COC)c2c3cc(ccc31)-c1cc(O)cc(c1)C[C@H](NC(=O)[C@H](C(C)C)N(C)C(=O)CN(C)C(=O)[C@H]1CN1)C(=O)N1CCC[C@H](N1)C(=O)OCC(C)(C)C2 [Example 7]
EC50 [9]: < 5000 nM
IC50 [10]: 10 to 100 nM
IC50 [11]: 100 to 1000 nM

CCn1c(-c2cnccc2COC)c2c3cc(ccc31)-c1cc(O)cc(c1)C[C@H](NC(=O)[C@H](C(C)C)N(C)C(=O)CN(C)C(=O)[C@@H]1CN1)C(=O)N1CCC[C@H](N1)C(=O)OCC(C)(C)C2 [Example 8]
EC50 [9]: < 5000 nM
IC50 [10]: 10 to 100 nM
IC50 [11]: 1000 to 10000 nM

CCn1c(-c2cnccc2COC)c2c3cc(ccc31)-c1cc(O)cc(c1)C[C@H](NC(=O)[C@H](C(C)C)N(C)C(=O)CN(C)C(=O)[C@H]1CN1Cc1ccccc1)C(=O)N1CCC[C@H](N1)C(=O)OCC(C)(C)C2 (some centres unmarked) [Example 9]
EC50 [9]: < 5000 nM
IC50 [10]: 10 to 100 nM
IC50 [11]: 1000 to 10000 nM

CCn1c(-c2cnccc2COC)c2c3cc(ccc31)-c1cc(O)cc(c1)C[C@H](NC(=O)[C@H](C(C)C)N(C)C(=O)CN(C)C(=O)[C@@H]1CN1Cc1ccccc1)C(=O)N1CCC[C@H](N1)C(=O)OCC(C)(C)C2 (some centres unmarked) [Example 10]
EC50 [9]: < 5000 nM
IC50 [10]: 10 to 100 nM
IC50 [11]: 1000 to 10000 nM

CCn1c(-c2cccnc2COC)c2c3cc(ccc31)-c1cc(O)cc(c1)C[C@H](NC(=O)[C@H](C(C)C)N(C)C(=O)CCNC(=O)NCCCl)C(=O)N1CCC[C@H](N1)C(=O)OCC(C)(C)C2 [Example 25]
IC50 [10]: > 10000 nM
